Experimental data reported in ChEMBL document CHEMBL1129761, “2-[(Alkylsulfonyl)oxy]-6-substituted-1H-isoindole-1,3(2H)-dione mechanism-based inhibitors of human leukocyte elastase” (Bioorg Med Chem Lett, 1996).

Assays:
[1] = molecular target: Chymotrypsinogen A (Bos taurus) (UniProt P00766); assay: Compound was evaluated for the inhibition of Chymotrypsinogen
[2] = molecular target: T1, Neutrophil elastase (Homo sapiens) (UniProt P08246); assay: Compound was evaluated for the inhibition of human leukocyte elastase (HLE).
T1 sequence (whole entry): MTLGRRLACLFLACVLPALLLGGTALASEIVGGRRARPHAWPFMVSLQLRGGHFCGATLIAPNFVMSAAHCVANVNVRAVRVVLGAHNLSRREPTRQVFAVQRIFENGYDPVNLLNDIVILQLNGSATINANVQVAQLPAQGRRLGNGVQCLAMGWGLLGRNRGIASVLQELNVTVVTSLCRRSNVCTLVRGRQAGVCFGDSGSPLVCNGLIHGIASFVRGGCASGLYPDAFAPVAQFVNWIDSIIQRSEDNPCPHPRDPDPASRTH

[3] = molecular target: T2, Chymotrypsin-like elastase family member 2A (Sus scrofa) (UniProt P08419); assay: Compound was evaluated for the inhibition of porcine pancreatic elastase (PPE).
T2 sequence (whole entry): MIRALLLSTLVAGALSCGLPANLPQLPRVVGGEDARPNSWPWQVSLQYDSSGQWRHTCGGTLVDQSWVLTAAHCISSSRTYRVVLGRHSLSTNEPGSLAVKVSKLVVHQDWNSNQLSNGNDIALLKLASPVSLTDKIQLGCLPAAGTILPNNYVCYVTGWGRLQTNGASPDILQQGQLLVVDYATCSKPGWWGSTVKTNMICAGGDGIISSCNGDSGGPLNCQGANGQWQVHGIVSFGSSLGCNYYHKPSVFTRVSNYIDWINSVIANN

Structure (SMILES) | k obs / 1 [1] [M⁻¹ s⁻¹] | k obs / 1 [2] [M⁻¹ s⁻¹] | k obs / 1 [3] [M⁻¹ s⁻¹]
Cc1ccc(S(=O)(=O)ON2C(=O)c3ccccc3C2=O)cc1 | 90000 | 78000 | 1400
Cc1ccc(S(=O)(=O)ON2C(=O)c3ccc(C)cc3C2=O)cc1 | 27000 | 58000 | 7400
CS(=O)(=O)ON1C(=O)c2ccccc2C1=O | 2700 | 61000 | 6500

Further lines, results first:

k obs / 1 [1] [M⁻¹ s⁻¹] | k obs / 1 [2] [M⁻¹ s⁻¹] | k obs / 1 [3] [M⁻¹ s⁻¹] | Structure (SMILES)
12000 | 110000 | 24000 | CS(=O)(=O)ON1C(=O)c2ccc(N)cc2C1=O
160000 | 63000 | 370 | CC(C)S(=O)(=O)ON1C(=O)c2ccccc2C1=O
11000 | 82000 | 22000 | CC(C)S(=O)(=O)ON1C(=O)c2ccc(N)cc2C1=O
16000 | 30000 | 21000 | Cc1ccc2c(c1)C(=O)N(OS(C)(=O)=O)C2=O
